Assay [1] concerns Enterococcus faecalis. The assay can be described thus: Antibacterial activity against Enterococcus faecalis ATCC 29212 assessed as bacterial growth inhibition by CLSI protocol based broth dilution or agar dilution method. It counts as functional.
The target of assay [2] is DNA gyrase (Escherichia coli, UniProt P0AES4+P0AES6). The assay can be described thus: Inhibition of Escherichia coli DNA gyrase (A2B2 tetramer) incubated for 60 mins in presence of ATP by malachite green reagent based spectrophotometric analysis. Format: protein-complex assay.
Assay [3] in a line: Inhibition of Escherichia coli DNA topoisomerase 4.
The nature of assay [4]: Inhibition of Escherichia coli DNA GyraseB incubated for 10 mins followed by ATP substrate addition by coupled spectrophotometric analysis.
In assay [5] the test system is Escherichia coli. The assay can be described thus: Antibacterial activity against Escherichia coli assessed as bacterial growth inhibition incubated for 18 to 24 hrs by alamar blue assay. Format: functional. Conditions: time hrs 18-24. (Alamar Blue is a resazurin reagent that responds to reducing activity.)
For assay [6], the system named is Staphylococcus aureus. Kind of assay: Antibacterial activity against Staphylococcus aureus assessed as bacterial growth inhibition incubated for 18 to 24 hrs by alamar blue assay. Format: functional. Particulars: time hrs 18-24.

In brackets after ≈: the same amount, converted by molar mass.

What is called MIC is the lowest concentration found to suppress growth. Broadly, the IC50 is the concentration that inhibits the measured activity by half. Regarding `CCNC(=O)Nc1nc2cc(-c3cnc(N4CCC(C)(C(=O)O)CC4)nc3)cc(-c3ccccn3)c2s1`, in assay [1], the MIC worked out at 0.03 µg/mL (≈ 0.058 µM). The figures for the IC50 in assay [2] and in assay [3] were 4.1 nM and 46 nM, respectively.
On to `CNc1cc(F)cc2c1[nH]c1nc(Oc3cnc(C)nc3)nc(N3C[C@@H]4[C@H](N)C[C@]4(C)C3)c12`, for which the IC50 in assay [4] is 0.3 nM. Besides, the MIC in assay [5] is 0.06 µg/mL (≈ 0.134 µM); in assay [6], 0.002 µg/mL (≈ 0.00446 µM).
